Our source for the IC50 values is US20240124442A1, “TRICYCLIC-AMIDO-BICYCLIC PRMT5 INHIBITORS” (AMGEN INC., priority 2021, published 2024).

SMILES strings stand for the structures. pIC50: −log10 of the molar value.

Experiment [1] has as its system HCT116 MTAP null cells. Briefly: HCT116 MTAP null cell line proliferation / cell viability (CellTiter-Glo, 6 days). It counts as cell-based. Particulars: 144 h; HCT116 MTAP null cells, 6 days treatment, CellTiter-Glo cell viability; read-out: HCT-116 MTAP null IC50. The procedure, abridged: (§1)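 WT vs MTAP-null HCT116, 6 d drug, CTG readout. 1:3 × 8–9 pts (top 1/10 μM) or 1:2 × 22 pts (top 10/50 μM). IC50 by 4PL or Hill −1 fit.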
Background: ATP-based viability assays read luminescence as a measure of living cells.

Experiment [2] relates to HCT116 WT cells. Description: HCT116 WT (parent) cell line proliferation / cell viability (CellTiter-Glo, 6 days). The experiment is classed as cell-based. The settings on record: Homo sapiens, HCT-116, 144 h, 6 days treatment. The procedure, abridged: as §1

On to `CN(C(=O)c1ccc2nc(N)c3cnn(C)c3c2c1)[C@@H]1COc2cc(C3CC3)ccc21` [Example 615, 4-amino-N-((3S)-6-cyclopropyl-2,3-dihydro-1-benzofuran-3-yl)-N,1-dimethyl-1H-pyrazolo[4,3-c]quinoline-8-carboxamide], for which the figures for the negative-log IC50 (pIC50) in experiment [1] and in experiment [2] were 7.85 and 5.88, respectively.
For `CN(C(=O)c1ccc2nc(N)c3cnn(C)c3c2c1)[C@@H]1COc2cc(-c3ccn(C)c3)ccc21` [Example 616, 4-amino-N,1-dimethyl-N-((3S)-6-(1-methyl-1H-pyrrol-3-yl)-2,3-dihydro-1-benzofuran-3-yl)-1H-pyrazolo[4,3-c]quinoline-8-carboxamide] the same measures were 7.49 and 5.44.
For `CN(C(=O)c1ccc2nc(N)c3cnn(C)c3c2c1)[C@@H]1COc2cc(C3=CCCCC3)ccc21` [Example 617, 4-amino-N-((3S)-6-(1-cyclohexen-1-yl)-2,3-dihydro-1-benzofuran-3-yl)-N,1-dimethyl-1H-pyrazolo[4,3-c]quinoline-8-carboxamide] the same measures were 7.26 and 5.78.
For `CN(C(=O)c1ccc2nc(N)c3cnn(C)c3c2c1)[C@@H]1COc2cc(C3=CCOCC3)ccc21` [Example 618, 4-amino-N-((3S)-6-(3,6-dihydro-2H-pyran-4-yl)-2,3-dihydro-1-benzofuran-3-yl)-N,1-dimethyl-1H-pyrazolo[4,3-c]quinoline-8-carboxamide] the same measures were 8.00 and 6.10.
On to `CN(C(=O)c1ccc2nc(N)c3cnn(C)c3c2c1)[C@@H]1COc2cc(C3=CCC(F)(F)CC3)ccc21` [Example 619, 4-amino-N-((3S)-6-(4,4-difluoro-1-cyclohexen-1-yl)-2,3-dihydro-1-benzofuran-3-yl)-N,1-dimethyl-1H-pyrazolo[4,3-c]quinoline-8-carboxamide], for which the values for the pIC50 in experiment [1] and in experiment [2] were 7.77 and 6.19, respectively.
Take `CN(C(=O)c1ccc2nc(N)c3cnn(C)c3c2c1)[C@@H]1COc2cc(-c3cnn(C(F)(F)F)c3)ccc21` [Example 620, 4-amino-N,1-dimethyl-N-((3S)-6-(1-(trifluoromethyl)-1H-pyrazol-4-yl)-2,3-dihydro-1-benzofuran-3-yl)-1H-pyrazolo[4,3-c]quinoline-8-carboxamide]: the negative logarithm of the IC50 (pIC50) (commonly the negative decadic logarithm of the IC50, by convention in mol/L) in experiment [1] is 8.22; in experiment [2] it was 6.20.
For `CCN(C(=O)c1ccc2nc(N)c3c(c2c1)CO[C@@H]3C)[C@@H]1COCc2cc(C3CC3)ccc21` [Example 621, (3R)-4-amino-N-((4S)-7-cyclopropyl-3,4-dihydro-1H-2-benzopyran-4-yl)-N-ethyl-3-methyl-1,3-dihydrofuro[3,4-c]quinoline-8-carboxamide] the same measures were 7.60 and 5.98.
For `CN(C(=O)c1ccc2nc(N)c3cnn(C)c3c2c1)[C@@H]1COc2cc(-c3cn[nH]c3)ccc21` [Example 622, (S)—N-(6-(1H-pyrazol-4-yl)-2,3-dihydrobenzofuran-3-yl)-4-amino-N,1-dimethyl-1H-pyrazolo[4,3-c]quinoline-8-carboxamide], the pIC50 in experiment [1] was 7.85; in experiment [2], 6.06.
For `CN(C(=O)c1ccc2nc(N)c3cnn(C)c3c2c1)[C@@H]1COc2cc(C3COC3)ccc21` [Example 625, 4-amino-N,1-dimethyl-N-((3S)-6-(3-oxetanyl)-2,3-dihydro-1-benzofuran-3-yl)-1H-pyrazolo[4,3-c]quinoline-8-carboxamide] the same measures were 7.54 and 5.63.
`CN(C(=O)c1ccc2nc(N)c3cnn(C)c3c2c1)[C@@H]1COc2cc(-c3ccoc3)ccc21` [Example 626, 4-amino-N-((3S)-6-(3-furanyl)-2,3-dihydro-1-benzofuran-3-yl)-N,1-dimethyl-1H-pyrazolo[4,3-c]quinoline-8-carboxamide]: the negative logarithm of the IC50 (pIC50) in experiment [1] was 8.22; in experiment [2], 6.42.
Take `CN(C(=O)c1ccc2nc(N)c3cnn(C)c3c2c1)[C@@H]1COc2cc(-c3ccncc3)ccc21` [Example 627, 4-amino-N,1-dimethyl-N-((3S)-6-(4-pyridinyl)-2,3-dihydro-1-benzofuran-3-yl)-1H-pyrazolo[4,3-c]quinoline-8-carboxamide]: the figures for the negative logarithm of the IC50 (pIC50) in experiment [1] and in experiment [2] were 8.40 and 6.87, respectively.
As for `CN(C(=O)c1ccc2nc(N)c3cnn(C)c3c2c1)[C@@H]1COc2cc(-c3cccnc3)ccc21` [Example 628, 4-amino-N,1-dimethyl-N-((3S)-6-(3-pyridinyl)-2,3-dihydro-1-benzofuran-3-yl)-1H-pyrazolo[4,3-c]quinoline-8-carboxamide], the figures for the negative logarithm of the IC50 (pIC50) in experiment [1] and in experiment [2] were 8.30 and 6.29, respectively.
For `CN(C(=O)c1ccc2nc(N)c3cnn(C)c3c2c1)[C@@H]1COc2cc(-c3cnn(C)c3)ccc21` [Example 629, 4-amino-N,1-dimethyl-N-((3S)-6-(1-methyl-1H-pyrazol-4-yl)-2,3-dihydro-1-benzofuran-3-yl)-1H-pyrazolo[4,3-c]quinoline-8-carboxamide] the same measures were 8.40 and 6.16.
As to `CN(C(=O)c1ccc2nc(N)c3cnn(C)c3c2c1)[C@@H]1COc2cc(-c3ccnn3C)ccc21` [Example 630, 4-amino-N,1-dimethyl-N-((3S)-6-(1-methyl-1H-pyrazol-5-yl)-2,3-dihydro-1-benzofuran-3-yl)-1H-pyrazolo[4,3-c]quinoline-8-carboxamide], the negative logarithm of the IC50 (pIC50) in experiment [1] was 8.52; in experiment [2], 6.65.
Regarding `CN(C(=O)c1ccc2nc(N)c3cnn(C)c3c2c1)[C@@H]1COc2cc(-c3ccn(C)n3)ccc21` [Example 631, 4-amino-N,1-dimethyl-N-((3S)-6-(1-methyl-1H-pyrazol-3-yl)-2,3-dihydro-1-benzofuran-3-yl)-1H-pyrazolo[4,3-c]quinoline-8-carboxamide], the pIC50 was 7.64 in experiment [1] and 5.60 in experiment [2].
For `Cc1cc(-c2ccc3c(c2)OC[C@H]3N(C)C(=O)c2ccc3nc(N)c4cnn(C)c4c3c2)co1` [Example 632, 4-amino-N,1-dimethyl-N-((3S)-6-(5-methyl-3-furanyl)-2,3-dihydro-1-benzofuran-3-yl)-1H-pyrazolo[4,3-c]quinoline-8-carboxamide] the same measures were 7.59 and 6.08.
Consider `Cc1cc(-c2ccc3c(c2)OC[C@H]3N(C)C(=O)c2ccc3nc(N)c4cnn(C)c4c3c2)on1` [Example 633, 4-amino-N,1-dimethyl-N-((3S)-6-(3-methyl-1,2-oxazol-5-yl)-2,3-dihydro-1-benzofuran-3-yl)-1H-pyrazolo[4,3-c]quinoline-8-carboxamide], for which the pIC50 is 8.10 in experiment [1] and 6.17 in experiment [2].
Regarding `CN(C(=O)c1ccc2nc(N)c3cnn(C)c3c2c1)[C@@H]1COc2cc(C3=CCCOC3)ccc21` [Example 634, 4-amino-N-((3S)-6-(5,6-dihydro-2H-pyran-3-yl)-2,3-dihydro-1-benzofuran-3-yl)-N,1-dimethyl-1H-pyrazolo[4,3-c]quinoline-8-carboxamide], the negative logarithm of the IC50 (pIC50) in experiment [1] is 8.10; in experiment [2], 6.28.
For `CN(C(=O)c1ccc2nc(N)c3cnn(C)c3c2c1)[C@@H]1COc2cc(-c3cscn3)ccc21` [Example 635, 4-amino-N,1-dimethyl-N-((3S)-6-(1,3-thiazol-4-yl)-2,3-dihydro-1-benzofuran-3-yl)-1H-pyrazolo[4,3-c]quinoline-8-carboxamide] the same measures were 8.05 and 6.21.
